Test results taken from publication PMC10860144, “Exploring the Dispersion and Electrostatic Components in Arene–Arene Interactions between Ligands and G4 DNA to Develop G4-Ligands” (Journal of Medicinal Chemistry, 2024).
pIC50: −log10 of the molar value.

Tests used:
[1] = system: G4 structure on DNA template (PEPu24T); test: Taq polymerase stop (primer extension) assay, G4 template; assay type: biochemical
From the text: To challenge all the synthesized compounds (2–11 and 25–29) in a more intricate context, we conducted a Taq polymerase stop assay to evaluate their capacity to impede DNA synthesis through G4 stabilization. In this assay, we compared the progress of the Taq DNA polymerase along two distinct DNA templates: one with a G4 structure (Figure 5) and another serving as a non-G4 control (Figure S21). If an external species (e.g., G4 ligand) binds and stabilizes the G4 structure, the polymerase will be partially halted. The extent of this DNA polymerase stalling is dependent on the ability of the compound to stabilize the G4 on the DNA template. The increased G4 stabilization can be detected as a reduction in the amount of newly synthesized DNA that has reached the end of the DNA template (full-length/end-product). Analysis of these shorter terminated DNA products will give information about the precise location of the DNA polymerase stalling with a single nucleotide resolution. If the ligand imposes little to no stabilization or binding, the G4 is readily resolved by the DNA polymerase, and no difference in the amount of DNA end-product can therefore be expected upon the addition of the compound.
Templates for the primer extension assay were created by annealing 25 nt TET labeled primer (1 μM final concentration) to either PEPu24T or a mutated sequence not forming a G4, PEPu24T mut, (1.25 μM final concentration) in 100 mM KCl by heating to 95 °C for 5 min and slowly cooling to room temperature. […] Compounds were added in the indicated concentration and incubated on ice for 10 min before starting the reaction by adding dNTPs (100 μM final concentration) to the reaction and transferring it to 37 °C. Reactions were stopped after 15 min by addition of 10 μL of formamide loading buffer (0.5% SDS, 25 mM EDTA, 95% v/v formamide and xylene-cyanol). Samples were then loaded on a 12% polyacrylamide gel containing 7 M urea and 25% formamide and imaged using an Amersham Typhoon. The images were quantified using ImageJ 1.53e software, and the percentage of full-length product compared to a sample without compound was calculated.
Templates for the primer extension assay were created by annealing 25nt TET labelled primer (1 µM final concentration) to either PEPu24T or a mutated sequence not forming a G4, PEPu24T mut, (1.25 µM final concentration) in 100 mM KCl by heating to 95 °C for 5 min and slowly cooling to room temperature. The reaction mixture (10 µl) contained 1X Taq Buffer with KCl (10 mM Tris-HCl pH 8.8, 50 mM KCl, detergent), 25 mM MgCl2, […]
[…] Compounds were added in the indicated concentration and incubated on ice for 10 min before starting the reaction by adding dNTPs (100 µM final concentration) to the reaction and transferring it to 37 °C. Reactions were stopped after 15 min by addition of 10 µl of formamide loading buffer (0,5% SDS, 25 mM EDTA, 95% v/v formamide and xylene-cyanol). Samples were then loaded on a 12% polyacrylamide gel containing 7 M urea and 25% formamide and imaged using an Amersham™ Typhoon™.
The images were quantified using ImageJ 1.53e software and the percentage of full-length product compared to a sample without compound was calculated. […]

[2] = Intrinsic clearance in rat hepatocytes; assay type: in vitro ADME
Method: All compounds (2–11, 25–29) were screened for their logD and solubility at pH 7.4 and for their intrinsic clearance in rat hepatocytes and human microsomes (Table S2). […] Replacing the basic amine side chain to a methyl substituent in the quinazolines (25–29) still retained good solubility (134 to over 1000 μM) but increased clearance in both rat hepatocytes and human microsomes. The logD was low for compounds with a basic amine side chain (2–11) and increased slightly when the amine was replaced with a methyl (25–29). As expected, additional substituents also affected the logD with the chloro-substituents increasing logD the most.
a Intrinsic clearance in rat hepatocytes ((μL/min)/10^6 cells).b Intrinsic clearance in human microsomes (μL/min/mg). […]

Structure (SMILES) | full-length DNA product ([1]; compound 0.24 μM, compared to DMSO control) | Rat heps: intrinsic clearance in rat hepatocytes [2] | blocking of the Taq DNA polymerase at the G4 structure (in words) ([1]; compound 0.24 μM) | pIC50 ([1]; G4 template, DNA 0.048 μM, read-out: concentration reaching 50% inhibition of DNA end-product)
Cc1cc(NCCCN(C)C)nc(Nc2ncc3ccccc3n2)n1 [Compound 2, N4-(3-(Dimethylamino)propyl)-6-methyl-N2-(quinazolin-2-yl)pyrimidine-2,4-diamine] | about 65% | 8 (μL/min)/106 cells |  | 
Cc1cc(C)c2nc(Nc3nc(C)cc(NCCCN(C)C)n3)nc(C)c2c1 [Compound 5, N4-(3-(Dimethylamino)propyl)-6-methyl-N2-(4,6,8-trimethylquinazolin-2-yl)pyrimidine-2,4-diamine] |  | 1 (μL/min)/106 cells | almost completely blocked | 
Cc1cc(C)c2nc(Nc3nc(C)cc(C)n3)nc(C)c2c1 [Compound 27, N-(4,6-Dimethylpyrimidin-2-yl)-4,6,8-trimethylquinazolin-2-amine] |  | 27 (μL/min)/106 cells |  | 5.92
